Assay results published in US7807712B2, “Oxy substituted chalcones as antihyperglycemic and antidyslipidemic agents” (priority 2004, dated 2010).
Read-outs that look alike come from different tables or passages of the source.

Columns and labels:
[1] = test system: triton WR-1339 induced hyperlipidemic rats; test: Triton model, antidyslipidemic activity; format: in vivo, rat (Charles foster); conditions: 100 mg/kg oral; for inhibition in vivo at 100 mg/kg: Rattus norvegicus
Procedure: Male Charles foster rats weighing 200-225 g were divided into control, hyperlipidemic and hyperlipidemic plus drug treated groups containing six animals in each group. Hyperlipidemia was induced by administration of triton WR-1339 (200 mg/kg i.p.). All animals were maintained on a special pellet diet and water ad libitum. Compounds and standard drug were macerated with 0.2% aqueous gum acacia suspension. The suspension was fed orally at the dose of 100 mg/kg simultaneously with triton in drug treated group. The animals of control group received the same amount of gum acacia by similar route of administration. At the end of the experiment, after 18 h, blood was withdrawn from retro orbital plexus and plasma was used for the assay of total cholesterol, phospholipid and triglycerides.
Cholesterol was estimated using the kit provided by Roche Diagnostics. Cholesterol esters are enzymatically hydrolyzed by cholesterol esterase (CE) to cholesterol and free fatty acids. Free cholesterol, including that originally present, is then oxidized by cholesterol oxidase (CO) to cholest-4-en-3-one and hydrogen peroxide. The hydrogen peroxide combines with hydroxy benzoic acid (HBA) and 4-aminoantipyrine (4AAA) in the presence of peroxidase (POD) to form a chromophore (quinoneimine dye), which may be quantitated at 500-505 nm. The intensity of red colour formed is directly proportional to the concentration of total cholesterol in the specimen and measured spectrophotometrically (Searcy, C. L. Diagnostic Biochemistry, 1969, McGraw Hill, New York; Ellefson, R. D.; Caraway, W. T. Fundamentals of clinical chemistry, 1976, Ed Tietz N W, 506-515.)
Triglycerides were estimated using the kit provided by Roche Diagnostics. Lipoprotein lipase hydrolyses triglycerides to yield glycerol and fatty acids. Glycerol kinase converts glycerol to glycerol-3-phosphate, which is oxidized by glycerol phosphate oxidase to dihydroxy acetone phosphate and hydrogen peroxide. In the presence of peroxidase, hydrogen peroxide oxidatively couples with 4-aminoantipyrine and 4-chloro phenol to produce red quinonimine dye. The intensity of red colour formed is directly proportional to the concentration of triglycerides in the specimen and is measured by photometrically (Wahlefeld, A. W.; Bergmeyer, H. U. Ed. Methods of enzymatic analysis, 2nd English edition, New York, N.Y., Academic press inc, 1831-1840.).
Serum (0.2 mL) and perchloric acid (1.0 mL) was digested at 180° C. for 1-1.5 h till the solution became colorless. The liberated inorganic phosphate (Pi) was measured by the method of Fiske and Subbarow (Fiske, C. H.; Subbarow, V. J. Biol. Chem. 1925, 66, 375.). 1 mL of 2.5% ammonium molybdate (prepared in 5 N sulphuric acid) and 0.5 mL reducing agent (4-amino naphthol sulphonic acid, 0.2%), sodium metabisulphite (2.4% w/v in distilled water) was added to the above tubes and mixed well. The reaction mixture was […] with 2.5 mL of triple distilled water and kept at 60° C. in water bath for 20 min. For standard, an appropriate amount of potassium dihydrogen phosphate dissolved in triple distilled water containing 2-10 μg phosphorus (Pi) was run simultaneously with the experiment tubes. The optical density of the blue colour was recorded at 620 nm against reagent blank. The values of Pi were converted into phospholipid by multiplying with 25 (a constant calibrated from Pi value of lecithin).

sucrose loaded rats = test: Sucrose loaded rat model (SLM), antihyperglycemic activity; format: in vivo, rat (Charles Foster/Wistar); conditions: 100 mg/kg oral, sucrose load 10.0 g/kg, AUC vs control, 30-120 min; for inhibition in vivo at 100 mg/kg: Rattus norvegicus, 2 h, read-out: % Fall in blood glucose levels SLM
Procedure: Male albino rats of Charles Foster/Wistar strain of average body weight 160±20 g were selected for this study. The blood glucose level of each animal was checked by glucometer using glucostrips (Boehringer Mannheim) after 16 h starvation. Animals showing blood glucose levels between 3.33 to 4.44 mM (60 to 80 mg/dl) were divided into groups of five to six animals in each. Animals of experimental group were administered suspension of the desired synthetic compound orally (made in 1.0% gum acacia) at a dose of 100-mg/kg-body weight. Animals of control group were given an equal amount of 1.0% gum acacia. A sucrose load (10.0 g/kg) was given to each animal orally exactly after 30 min post administration of the test sample/vehicle. Blood glucose profile of each rat was again determined at 30, 60, 90 and 120 min post administration of sucrose by glucometer. Food but not water was withheld from the cages during the course of experimentation. Quantitative glucose tolerance of each animal was calculated by Area Under Curve (AUC) method (Prism Software). Comparing the AUC of experimental and control groups determined the percentage antihyperglycemic activity. Statistical comparison was made by Dunnett's test.

[2] = plasma phospholipid after 18 h, read-out: % Fall in lipid levels (Triton model) PL
[3] = plasma total cholesterol after 18 h, read-out: % Fall in lipid levels (Triton model) TC
[4] = plasma triglycerides after 18 h, read-out: % Fall in lipid levels (Triton model) TG
[5] = plasma total cholesterol after 18 h
[6] = plasma triglycerides after 18 h

SMILES | inhibition in vivo at 100 mg/kg [1, 2] | inhibition in vivo at 100 mg/kg [1, 3] | inhibition in vivo at 100 mg/kg [1, 4] | % Fall in blood glucose levels SLM (sucrose loaded rats) | melting point | % Fall in lipid levels (Triton model) PL ([1]; plasma phospholipid after 18 h) | % Fall in lipid levels (Triton model) TC [1, 5] | % Fall in lipid levels (Triton model) TG [1, 6] | inhibition in vivo at 100 mg/kg (sucrose loaded rats)
COc1ccc(/C=C/C(=O)c2ccc(OCC(O)CNCCc3ccc(OC)c(OC)c3)cc2)cc1 (centres unmarked) [Compound 25, 4′-[3-{2-(3,4-Dimethoxyphenyl)-ethylamino}-2-hydroxy-propoxy]-4-methoxy-chalcone] | 10% | 4% | 33% | NIL | 120 to 121 °C | – | – | – | –
COc1ccc(C=CC(=O)c2cccc(OCCCCCOc3ccc(C=C4SC(=O)NC4=O)cc3)c2)cc1 [Compound 44, 4-Methoxy-3′-{5-[4-(thiazolidin-2,4-dione-5-ylidinemethyl)-phenoxy]-pentyloxy}-chalcone] | – | – | – | NIL | – | 13% | 06% | 19% | –
COc1ccc(C=CC(=O)c2cccc(OCCCCOc3ccc(C=C4SC(=O)NC4=O)cc3)c2)cc1 [Compound 43, 4-Methoxy-3′-{4-[4-(thiazolidin-2,4-dione-5-ylidinemethyl)-phenoxy]-butoxy}-chalcone] | – | – | – | NIL | – | 14% | 04% | 31% | –
COc1ccc(/C=C/C(=O)c2ccc(OCC(O)CNC(C)C)cc2)cc1 (centres unmarked) [Compound 23, 4′-[2-Hydroxy-3-iso-propylamino-propoxy]-4-methoxy-chalcone] | 12% | 17% | 22% | – | 105 to 106 °C | – | – | – | 1.41%
CNCC(O)COc1ccc(C(=O)/C=C/c2ccc(OC)cc2)cc1 (centres unmarked) [Compound 26, 4′-[2-Hydroxy-3-methylamino-propoxy]-4-methoxy-chalcone] | 28% | 37% | 39% | – | 114 to 115 °C | – | – | – | –
O=C(/C=C/c1ccc2c(c1)OCO2)c1ccc(OCC(O)CN2CCN(c3ccccc3)CC2)cc1 (centres unmarked) [Compound 33, 4′-[2-Hydroxy-3-(4-phenylpiperazin-1-yl)-propoxy]-3,4-methylenedioxy-chalcone] | 21% | 22% | 16% | – | 153 to 154 °C | – | – | – | 5.03%
COc1ccc(/C=C/C(=O)c2ccc(OCC(O)CNCC(C)C)cc2)cc1 (centres unmarked) [Compound 21, 4′-[3-iso-Butylamino-2-hydroxy-propoxy]-4-methoxy-chalcone] | 14% | 5% | 12% | – | 76 to 77 °C | – | – | – | 5.67%
COc1ccc(/C=C/C(=O)c2cccc(OCC(O)CN3CCN(c4ccccc4)CC3)c2)cc1 (centres unmarked) [Compound 28, 3′-[2-Hydroxy-3-(4-phenylpiperazin-1-yl)-propoxy]-4-methoxy-chalcone] | 26% | 40% | 17% | – | 153 to 154 °C | – | – | – | 4.41%
O=C1NC(=O)C(=Cc2ccc(OCCCCOc3cccc(C(=O)C=Cc4ccc5c(c4)OCO5)c3)cc2)S1 [Compound 45, 3,4-Methylenedioxy-3′-{4-[4-(thiazolidin-2,4-dione-5-ylidinemethyl)-phenoxy]-butoxy}-chalcone] | – | – | – | 0.13% | – | 21% | 23% | 14% | –
